According to ChEMBL document CHEMBL3885881, “DrugMatrix”:

Species on record: Rattus norvegicus
Test: DrugMatrix - Regimen: Daily Repeat
Type: toxicity, organism-based, Sprague-Dawley
Design: regimen Daily Repeat, gender Male, age 6-8 weeks
Settings: in vivo, po, route oral GAVAGE, vehicle .5 % CMC; for ABSOLUTE BASOPHIL / ABSOLUTE EOSINOPHIL / ABSOLUTE LYMPHOCYTE / ABSOLUTE MONOCYTE / ABSOLUTE SEGMENTED NEUTROPHIL / BASOPHIL / EOSINOPHIL / ERYTHROCYTE COUNT / HEMATOCRIT / HEMOGLOBIN / LEUKOCYTE COUNT / LYMPHOCYTE / MEAN CORPUSCULAR HEMOGLOBIN / MEAN CORPUSCULAR HEMOGLOBIN CONCENTRATION / MEAN CORPUSCULAR VOLUME / MONOCYTE / NEUTROPHIL / NUCLEATED RED BLOOD CELLS / PLATELET COUNT: tissue Blood; for ALANINE AMINOTRANSFERASE / ALBUMIN / ALKALINE PHOSPHATASE / ASPARTATE AMINOTRANSFERASE / BLOOD UREA NITROGEN / CARBON DIOXIDE / CHLORIDE / CHOLESTEROL / CREATINE PHOSPHOKINASE / CREATININE / GLUCOSE / LACTATE DEHYDROGENASE / LIPASE / PHOSPHORUS / POTASSIUM / SODIUM / TOTAL BILIRUBIN / TOTAL PROTEIN / URIC ACID: tissue Plasma
[1] = 0 mg/kg, 72 h, dose level Control, time 3 day
[2] = 0 mg/kg, 120 h, dose level Control, time 5 day
[3] = 100 mg/kg, 72 h, dose level Low, time 3 day

COC1=C(OC)C(=O)C(CCCCCCCCCCO)=C(C)C1=O [IDEBENONE]
ABSOLUTE BASOPHIL [1]: 0 CELLS/uL | ABSOLUTE EOSINOPHIL [1]: 0 CELLS/uL | ABSOLUTE LYMPHOCYTE [1]: 12191.17 CELLS/uL | ABSOLUTE MONOCYTE [1]: 183.17 CELLS/uL | ABSOLUTE SEGMENTED NEUTROPHIL [1]: 1192.33 CELLS/uL | BASOPHIL [1]: 0% | EOSINOPHIL [1]: 0% | ERYTHROCYTE COUNT [1]: 5.51 x10E6/uL | HEMATOCRIT [1]: 35.45% | HEMOGLOBIN [1]: 13.82 G/DL | LEUKOCYTE COUNT [1]: 13.57 x10E3/uL | LYMPHOCYTE [1]: 89.83% | MEAN CORPUSCULAR HEMOGLOBIN [1]: 25.1 pg | MEAN CORPUSCULAR HEMOGLOBIN CONCENTRATION [1]: 38.98 G/DL | MEAN CORPUSCULAR VOLUME [1]: 64.42 fL | MONOCYTE [1]: 1.33% | NEUTROPHIL [1]: 8.83% | NUCLEATED RED BLOOD CELLS [1]: 0 /100WBC | PLATELET COUNT [1]: 1118.17 x10E3/uL | ALANINE AMINOTRANSFERASE [1]: 55 u/L | ALBUMIN [1]: 4.15 G/DL | ALKALINE PHOSPHATASE [1]: 449.5 u/L | ASPARTATE AMINOTRANSFERASE [1]: 112.83 u/L | BLOOD UREA NITROGEN [1]: 17.33 mg/dL | CARBON DIOXIDE [1]: 29.5 mmol/L | CHLORIDE [1]: 101 MEQ/L | CHOLESTEROL [1]: 70 mg/dL | CREATINE PHOSPHOKINASE [1]: 1325.83 u/L | CREATININE [1]: 0.18 mg/dL | GLUCOSE [1]: 171.5 mg/dL | LACTATE DEHYDROGENASE [1]: 386 u/L | LIPASE [1]: 10 u/L | PHOSPHORUS [1]: 11.57 mg/dL | POTASSIUM [1]: 6.21 MEQ/L | SODIUM [1]: 141.65 MEQ/L | TOTAL BILIRUBIN [1]: 0.15 mg/dL | TOTAL PROTEIN [1]: 5.75 G/DL | URIC ACID [1]: 1.28 mg/dL | ABSOLUTE BASOPHIL [2]: 0 CELLS/uL | ABSOLUTE EOSINOPHIL [2]: 138.17 CELLS/uL | ABSOLUTE LYMPHOCYTE [2]: 13283.17 CELLS/uL | ABSOLUTE MONOCYTE [2]: 303.83 CELLS/uL | ABSOLUTE SEGMENTED NEUTROPHIL [2]: 1308.17 CELLS/uL | BASOPHIL [2]: 0% | EOSINOPHIL [2]: 1% | ERYTHROCYTE COUNT [2]: 5.32 x10E6/uL | HEMATOCRIT [2]: 33.8% | HEMOGLOBIN [2]: 13.63 G/DL | LEUKOCYTE COUNT [2]: 15.03 x10E3/uL | LYMPHOCYTE [2]: 88.33% | MEAN CORPUSCULAR HEMOGLOBIN [2]: 25.68 pg | MEAN CORPUSCULAR HEMOGLOBIN CONCENTRATION [2]: 40.35 G/DL | MEAN CORPUSCULAR VOLUME [2]: 63.67 fL | MONOCYTE [2]: 1.83% | NEUTROPHIL [2]: 8.83% | NUCLEATED RED BLOOD CELLS [2]: 0 /100WBC | PLATELET COUNT [2]: 1097.5 x10E3/uL | ALANINE AMINOTRANSFERASE [2]: 54.5 u/L | ALBUMIN [2]: 4.27 G/DL | ALKALINE PHOSPHATASE [2]: 337 u/L | ASPARTATE AMINOTRANSFERASE [2]: 94.67 u/L | BLOOD UREA NITROGEN [2]: 17 mg/dL | CARBON DIOXIDE [2]: 28.33 mmol/L | CHLORIDE [2]: 101.5 MEQ/L | CHOLESTEROL [2]: 71.33 mg/dL | CREATINE PHOSPHOKINASE [2]: 628.17 u/L | CREATININE [2]: 0.19 mg/dL | GLUCOSE [2]: 177.83 mg/dL | LACTATE DEHYDROGENASE [2]: 500.5 u/L | LIPASE [2]: 9.5 u/L | PHOSPHORUS [2]: 12.3 mg/dL | POTASSIUM [2]: 5.63 MEQ/L | SODIUM [2]: 143.03 MEQ/L | TOTAL BILIRUBIN [2]: 0.2 mg/dL | TOTAL PROTEIN [2]: 6.02 G/DL | URIC ACID [2]: 1.5 mg/dL | ABSOLUTE BASOPHIL [3]: 0 CELLS/uL | ABSOLUTE EOSINOPHIL [3]: 86.67 CELLS/uL | ABSOLUTE LYMPHOCYTE [3]: 16240.33 CELLS/uL | ABSOLUTE MONOCYTE [3]: 104 CELLS/uL | ABSOLUTE SEGMENTED NEUTROPHIL [3]: 1602.33 CELLS/uL | BASOPHIL [3]: 0% | EOSINOPHIL [3]: 0.67% | ERYTHROCYTE COUNT [3]: 5.22 x10E6/uL | HEMATOCRIT [3]: 32.37% | HEMOGLOBIN [3]: 13.17 G/DL | LEUKOCYTE COUNT [3]: 18.03 x10E3/uL | LYMPHOCYTE [3]: 90.33% | MEAN CORPUSCULAR HEMOGLOBIN [3]: 25.27 pg | MEAN CORPUSCULAR HEMOGLOBIN CONCENTRATION [3]: 40.67 G/DL | MEAN CORPUSCULAR VOLUME [3]: 62.07 fL | MONOCYTE [3]: 0.67% | NEUTROPHIL [3]: 8.33% | NUCLEATED RED BLOOD CELLS [3]: 0 /100WBC | PLATELET COUNT [3]: 1354 x10E3/uL | ALANINE AMINOTRANSFERASE [3]: 57.67 u/L | ALBUMIN [3]: 3.97 G/DL | ALKALINE PHOSPHATASE [3]: 401 u/L | ASPARTATE AMINOTRANSFERASE [3]: 105.67 u/L | BLOOD UREA NITROGEN [3]: 17.67 mg/dL | CARBON DIOXIDE [3]: 26.33 mmol/L | CHLORIDE [3]: 101 MEQ/L | CHOLESTEROL [3]: 67 mg/dL | CREATINE PHOSPHOKINASE [3]: 961.67 u/L | CREATININE [3]: 0.19 mg/dL | GLUCOSE [3]: 227 mg/dL | LACTATE DEHYDROGENASE [3]: 252 u/L | LIPASE [3]: 9.67 u/L | PHOSPHORUS [3]: 13.13 mg/dL | POTASSIUM [3]: 6.02 MEQ/L | SODIUM [3]: 142.43 MEQ/L | TOTAL BILIRUBIN [3]: 0.2 mg/dL | TOTAL PROTEIN [3]: 5.47 G/DL | URIC ACID [3]: 1.67 mg/dL
